Read-outs that look alike come from different tables or passages of the source.
Test system: B cells in human blood
Assay: Inhibition of B cell activation in whole blood measured by CD69 expression
Assay type: cell-based
Experimental: Inhibition of B Cell Activation in Whole Blood Measured by CD69 Expression
A procedure to test the ability of Btk inhibitors to suppress B cell receptor-mediated activation of B cells in human blood is as follows:
Human whole blood (HWB) is obtained from healthy volunteers, with the following restrictions: 24 hr drug-free, non-smokers. Blood is collected by venipuncture into Vacutainer tubes anticoagulated with sodium heparin. Test compounds are diluted to […] the desired starting drug concentration in PBS (20×), followed by three-fold serial dilutions in 10% DMSO in PBS to produce a nine point dose-response curve. 5.5 μl of each compound dilution is added in duplicate to a 2 ml96-well V bottom plate (Analytical Sales and Services, #59623-23); 5.5 μl of 10% DMSO in PBS is added to control and no-stimulus wells. HWB (100 μl) is added to each well, and after mixing the plates are incubated at 37 C, 5% CO2, 100% humidity for 30 minutes. Goat F(ab′)2 anti-human IgM (Southern Biotech, #2022-14) (10 μl of a […] solution, 50 μg/ml final concentration) is added to each well (except the no-stimulus wells) with mixing and the plates are incubated for an additional 20 hours.
At the end of the 20 hour incubation, samples are incubated with florescent-probe-labeled anti-bodies (15 μl PE Mouse anti-Human CD20, BD Pharmingen, #555623, and/or 20 ul APC Mouse anti-Human CD69, BD Pharmingen #555533) for 30 minutes, at 37 C, 5% CO2, 100% humidity. Included are induced control, unstained and single stains for compensation adjustments and initial voltage settings. Samples are then lysed with 1 ml of 1× Pharmingen Lyse Buffer (BD Pharmingen #555899), and plates are centrifuged at 1800 rpm for 5 minutes. Supernatants are removed via suction and the remaining pellets are lysed again with another 1 ml of 1× Pharmingen Lyse Buffer, and plates are spun down as before. Supernatants are aspirated and remaining pellets are washed in FACs buffer (PBS+1% FBS). After a final spin, the supernantants are removed and pellets are resuspended in 180 μl of FACs buffer. Samples are transferred to a 96 well plate suitable to be run on the HTS 96 well system on the BD LSR II flow cytometer.
Using appropriate excitation and emission wavelengths for the fluorophores used, data are acquired and percent positive cell values are obtained using Cell Quest Software. Results are initially analyzed by FACS analysis software (Flow Jo). […] The IC50 values are calculated using XLfit software version 3, equation 201.
Representative compound data for this assay are listed below in Table II.

[1] = CD69-positive, CD20-positive cells after anti-IgM stimulation, human whole blood, 20 hours, read-out: Human Whole Blood

| IC50 [1] [nM] | SMILES | IC50 (Homo sapiens, 20 h, read-out: Human Whole Blood, CD69-positive, CD20-positive cells after anti-IgM stimulation, human whole blood, 20 hours) [nM] |
| --- | --- | --- |
| 4 | CCN1CCC(c2ccc(Nc3cc(-c4cccc(-n5ncc6cc(C(C)(C)C)cc(F)c6c5=O)c4CO)nn(C)c3=O)nc2)CC1 [I-30, 6-tert-Butyl-2-{3-[5-(1′-ethyl-1′,2′,3′,4′,5′,6′-hexahydro-[3,4]bipyridinyl-6-ylamino)-1-methyl-6-oxo-1,6-dihydro-pyridazin-3-yl]-2-hydroxymethyl-phenyl}-8-fluoro-2H-phthalazin-1-one] | – |
| 56 | Cn1nc(Nc2cc(-c3cccc(-n4ccc5cc(C(C)(C)C#N)cc(F)c5c4=O)c3CO)nn(C)c2=O)cc1CN1CCC1 [I-72, 2-(2-{3-[5-(5-Azetidin-1-ylmethyl-1-methyl-1H-pyrazol-3-ylamino)-1-methyl-6-oxo-1,6-dihydro-pyridazin-3-yl]-2-hydroxymethyl-phenyl}-8-fluoro-1-oxo-1,2-dihydro-isoquinolin-6-yl)-2-methyl-propionitrile] | – |
| 144 | Cn1nc(-c2cccc(-n3ncc4cc(C(C)(C)C)cc(F)c4c3=O)c2CO)cc(Nc2ccc(C3CCN(S(C)(=O)=O)CC3)cn2)c1=O [I-62, 6-tert-butyl-8-fluoro-2-(2-(hydroxymethyl)-3-(1-methyl-5-(5-(1-(methylsulfonyl)-piperidin-4-yl)pyridin-2-ylamino)-6-oxo-1,6-dihydropyridazin-3-yl)phenyl)phthalazin-1(2H)-one] | – |
| 163 | Cn1nc(-c2cccc(-n3ccc4cc(C(C)(C)C#N)cc(F)c4c3=O)c2CO)cc(Nc2ccc(C(=O)N3CCOCC3)cn2)c1=O [I-15, 2-[8-fluoro-2-(2-hydroxymethyl-3-{1-methyl-5-[5-(morpholine-4-carbonyl)-pyridin-2-ylamino]-6-oxo-1,6-dihydro-pyridazin-3-yl}-phenyl)-1-oxo-1,2-dihydro-isoquinolin-6-yl]-2-methyl-propionitrile] | – |
| 340 | Cn1nc(-c2cccc(-n3ncc4cc(C(C)(C)C)cc(F)c4c3=O)c2CO)cc(Nc2ccc(C3CCN(CC(F)(F)F)CC3)cn2)c1=O [I-90, 6-tert-butyl-8-fluoro-2-(2-hydroxymethyl-3-{1-methyl-6-oxo-5-[1′-(2,2,2-trifluoro-ethyl)-1′,2′,3′,4′,5′,6′-hexahydro-[3,4′]bipyridinyl-6-ylamino]-1,6-dihydro-pyridazin-3-yl}-phenyl)-2H-phthalazin-1-one] | – |
| 62 | Cn1nc(-c2cccc(-n3ncc4cc(C(C)(C)C)cc(F)c4c3=O)c2CO)cc(Nc2ccc(N3CCC(O)CC3)cn2)c1=O [I-65, 6-tert-butyl-8-fluoro-2-(2-(hydroxymethyl)-3-(5-(5-(4-hydroxypiperidin-1-yl)pyridin-2-ylamino)-1-methyl-6-oxo-1,6-dihydropyridazin-3-yl)phenyl)phthalazin-1(2H)-one] | – |
| – | CN(C)C(=O)c1ccc(Nc2cc(-c3cccc(-n4ncc5cc(C(C)(C)C)cc(F)c5c4=O)c3CO)nn(C)c2=O)nc1 [I-10, 6-{6-[3-(6-tert-Butyl-8-fluoro-1-oxo-1H-phthalazin-2-yl)-2-hydroxymethyl-phenyl]-2-methyl-3-oxo-2,3-dihydro-pyridazin-4-ylamino}-N,N-dimethyl-nicotinamide] | 19 |
| 116 | CC(C)S(=O)(=O)c1ccc(Nc2cc(-c3cccc(-n4ncc5cc(C(C)(C)C)cc(F)c5c4=O)c3CO)nn(C)c2=O)nc1 [I-24, 6-tert-Butyl-8-fluoro-2-(2-hydroxymethyl-3-{1-methyl-6-oxo-5-[5-(propane-2-sulfonyl)-pyridin-2-ylamino]-1,6-dihydro-pyridazin-3-yl}-phenyl)-2H-phthalazin-1-one] | – |
| 152 | Cn1nc(-c2cccc(-n3ncc4cc(C(C)(C)C)cc(F)c4c3=O)c2CO)cc(Nc2ccc(S(=O)(=O)CCO)cn2)c1=O [I-26, 6-tert-Butyl-8-fluoro-2-(3-{5-[5-(2-hydroxyethanesulfonyl)-pyridin-2-ylamino]-1-methyl-6-oxo-1,6-dihydro-pyridazin-3-yl}-2-hydroxymethyl-phenyl)-2H-phthalazin-1-one] | – |
| 32 | CN1CCC(c2ccc(Nc3cc(-c4cccc(-n5ccc6cc(C(C)(C)C#N)cc(F)c6c5=O)c4CO)nn(C)c3=O)nc2)CC1 [I-71, 2-(8-Fluoro-2-{2-hydroxymethyl-3-[1-methyl-5-(1′-methyl-1′,2′,3′,4′,5′,6′-hexahydro-[3,4′]bipyridinyl-6-ylamino)-6-oxo-1,6-dihydro-pyridazin-3-yl]-phenyl}-1-oxo-1,2-dihydro-isoquinolin-6-yl)-2-methyl-propionitrile] | – |
| 455 | Cn1nc(-c2cccc(-n3ccc4cc(C(C)(C)CF)cc(F)c4c3=O)c2CO)cc(Nc2ccc(C(=O)N3CCOCC3)cn2)c1=O [I-87, 8-Fluoro-6-(2-fluoro-1,1-dimethyl-ethyl)-2-(2-hydroxymethyl-3-{1-methyl-5-[5-(morpholine-4-carbonyl)-pyridin-2-ylamino]-6-oxo-1,6-dihydro-pyridazin-3-yl}-phenyl)-2H-isoquinolin-1-one] | – |
| 408 | CCOC(=O)N1CCN(c2ccc(Nc3cc(-c4cccc(-n5ncc6cc(C(C)(C)C)cc(F)c6c5=O)c4CO)nn(C)c3=O)nc2)CC1 [I-86, 4-(6-{6-[3-(6-tert-Butyl-8-fluoro-1-oxo-1H-phthalazin-2-yl)-2-hydroxymethyl-phenyl]-2-methyl-3-oxo-2,3-dihydro-pyridazin-4-ylamino}-pyridin-3-yl)-piperazine-1-carboxylic acid ethyl ester] | – |
| 294 | Cn1nc(-c2cccc(-n3ncc4cc(C(C)(C)C)cc(F)c4c3=O)c2CO)cc(Nc2ccc(CN3CCC(C)(O)CC3)cn2)c1=O [I-85, 6-tert-Butyl-8-fluoro-2-(2-hydroxymethyl-3-{5-[5-(4-hydroxy-4-methyl-piperidin-1-ylmethyl)-pyridin-2-ylamino]-1-methyl-6-oxo-1,6-dihydro-pyridazin-3-yl}-phenyl)-2H-phthalazin-1-one] | – |
| 60 | CCS(=O)(=O)c1ccc(Nc2cc(-c3cccc(-n4ncc5cc(C(C)(C)C)cc(F)c5c4=O)c3CO)nn(C)c2=O)nc1 [I-23, 6-tert-Butyl-2-{3-[5-(5-ethanesulfonyl-pyridin-2-ylamino)-1-methyl-6-oxo-1,6-dihydro-pyridazin-3-yl]-2-hydroxymethyl-phenyl}-8-fluoro-2H-phthalazin-1-one] | – |
| 189 | CC(=O)N1CCC(c2ccc(Nc3cc(-c4cccc(-n5ncc6cc(C(C)(C)C)cc(F)c6c5=O)c4CO)nn(C)c3=O)nc2)CC1 [I-63, 2-(3-(5-(5-(1-acetylpiperidin-4-yl)pyridin-2-ylamino)-1-methyl-6-oxo-1,6-dihydropyridazin-3-yl)-2-(hydroxymethyl)phenyl)-6-tert-butyl-8-fluorophthalazin-1(2H)-one] | – |
| 23 | CN1CC[C@@H](c2ccc(Nc3cc(-c4cccc(-n5ncc6cc(C(C)(C)C)cc(F)c6c5=O)c4CO)nn(C)c3=O)nc2)C1 [I-32, 6-tert-Butyl-8-fluoro-2-(2-hydroxymethyl-3-[1-methyl-5-[5-((S)-1-methyl-pyrrolidin-3-yl)-pyridin-2-ylamino]-6-oxo-1,6-dihydro-pyridazin-3-yl]-phenyl)-2H-phthalazin-1-one] | – |
| 66 | Cn1nc(-c2cccc(-n3ncc4cc(C(C)(C)C)cc(F)c4c3=O)c2CO)cc(Nc2ccc(N3CCC(C)(O)CC3)cn2)c1=O [I-64, 6-tert-butyl-8-fluoro-2-(3-(5-(5-(4-hydroxy-4-methylpiperidin-1-yl)pyridin-2-ylamino)-1-methyl-6-oxo-1,6-dihydropyridazin-3-yl)-2-(hydroxymethyl)-phenyl)phthalazin-1(2H)-one] | – |
| 109 | Cn1nc(-c2cccc(-n3ncc4cc(C(C)(C)C)cc(F)c4c3=O)c2CO)cc(Nc2ccc(C(=O)N3CCC(C)(O)CC3)cn2)c1=O [I-21, 6-tert-butyl-8-fluoro-2-(2-hydroxymethyl-3-{5-[5-(4-hydroxy-4-methyl-piperidine-1-carbonyl)-pyridin-2-ylamino]-1-methyl-6-oxo-1,6-dihydro-pyridazin-3-yl}-phenyl)-2H-phthalazin-1-one] | – |
| 34 | CN1CCn2nc(Nc3cc(-c4cccc(-n5ccc6cc(C(C)(C)C#N)cc(F)c6c5=O)c4CO)nn(C)c3=O)cc2C1 [I-74, 2-(8-Fluoro-2-{2-hydroxymethyl-3-[1-methyl-5-(5-methyl-4,5,6,7-tetrahydro-pyrazolo[1,5-a]pyrazin-2-ylamino)-6-oxo-1,6-dihydro-pyridazin-3-yl]-phenyl}-1-oxo-1,2-dihydro-isoquinolin-6-yl)-2-methyl-propionitrile] | – |

From patent US8481540B2, “Inhibitors of bruton's tyrosine kinase” (Hoffmann-La Roche Inc., priority 2010, dated 2013)
